Reference: PubChem BioAssay (NCI)
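Assay format: 96-well plates, 48-hour exposure. GI50: concentration for 50% inhibition of growth. TGI denotes the concentration required for complete inhibition of growth.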

Experiments:
Assay in all cases: NCI-60 cell line screen, 48 h
[1] = test system: RPMI-8226 leukemia
[2] = test system: CCRF-CEM leukemia
[3] = test system: TK-10 renal
[4] = test system: COLO 205 colon
[5] = test system: NCI-H460 lung
[6] = test system: SF-268 CNS
[7] = test system: T-47D breast
[8] = test system: PC-3 prostate
[9] = test system: HS 578T breast
[10] = test system: MDA-MB-231 breast

Row | Compound | TGI [1] [µM] | TGI [2] [µM] | TGI [3] [µM] | TGI [4] [µM] | TGI [5] [µM] | TGI [6] [µM] | GI50 [7] [µM] | TGI [7] [µM] | GI50 [8] [µM] | TGI [8] [µM] | GI50 [9] [µM] | TGI [9] [µM] | GI50 [10] [µM] | TGI [10] [µM] | GI50 [1] [µM] | GI50 [2] [µM] | GI50 [3] [µM] | GI50 [4] [µM] | GI50 [5] [µM] | GI50 [6] [µM]
1 | COC(=O)C1C(OCc2ccccc2)C2CCC1(OC)C=C2C (stereo unspecified) | > 100 | 65 | > 100 | > 100 | > 100 | > 100 | – | – | – | – | – | – | – | – | – | – | – | – | – | –
2 | OCc1ccc(N(CCN2CCCC2)Cc2ccc(F)cc2)cc1Cl | 47.4 | 91.5 | 34.8 | 21.5 | 13.9 | 69 | 19 | 49.2 | 15.6 | 37 | 20.9 | 80.1 | 16 | 38.1 | 18.5 | 23.8 | 15 | 8.66 | 3.47 | 21
3 | O=C(c1ccc(Cl)cc1)c1ccc(OCCSCCCCCCCCCCSCCOc2ccc(C(=O)c3ccc(Cl)cc3)cc2)cc1 | > 100 | > 100 | > 100 | > 100 | > 100 | > 100 | – | – | – | – | – | – | – | – | – | – | – | – | – | –
4 | COc1ccc(/C=C/NC=O)cc1 | > 100 | > 100 | > 100 | > 100 | > 100 | > 100 | – | > 100 | – | > 100 | – | > 100 | – | > 100 | – | – | – | – | – | –
5 | C1=Nc2ccccc2C=Nc2ccccc2C=Nc2ccccc2C=Nc2ccccc21.[Cl-].[Pt+2] | 35.6 | 67.2 | > 100 | 51.4 | > 100 | 75.9 | – | – | – | – | – | – | – | – | 5.63 | 14.9 | 45.7 | 17.3 | 25.7 | 25.1
6 | O=C(COc1cccc(/C=C2\CSc3ccccc3C2=O)c1)c1ccc(Cl)cc1 | > 100 | – | 4.42 | 7.35 | 8.38 | 5.2 | 2.15 | 5.43 | 2.01 | 5.25 | 2.74 | 17.2 | 4.48 | 14.8 | > 100 | 0.325 | 1.88 | 2.89 | 2.88 | 2.16
7 | COc1ccc(N(C)c2c3ccccc3nc3[nH]c4ccccc4c23)cc1 | 0.528 | – | 1.63 | 6.13 | 7.12 | 2.27 | 0.986 | 2.61 | 0.424 | 2.63 | 2.55 | 11 | 0.616 | 2.05 | 0.139 | – | 0.681 | 0.347 | 0.151 | 0.373
8 | NC1CCC(N[C@@H]2C[C@H]2c2ccccc2)CC1 (stereo partly specified) | > 100 | > 100 | > 100 | > 100 | > 100 | > 100 | > 100 | > 100 | 70.8 | > 100 | > 100 | > 100 | 23 | > 100 | 41.8 | 82.8 | > 100 | 73.4 | > 100 | > 100
9 | COc1cc(Nc2nc3ccc(C(F)(F)F)cc3nc2-c2ccccc2)cc(OC)c1OC | – | > 100 | > 100 | – | 32.3 | > 100 | – | – | – | – | – | – | – | – | – | – | – | – | – | –
10 | O=[N+]([O-])c1ccc2nc3ccccc3cc2c1 | – | – | 5.24 | 14.9 | > 100 | 83.4 | – | 15.4 | – | 10.2 | – | 27.4 | – | 8.64 | – | – | – | – | – | –
11 | COc1ccc2c(c1)/C(=N/OC(C)=O)c1c-2c(=O)[nH]c2ccccc12 | 21.8 | 23.6 | 58 | 31.7 | > 100 | > 100 | 3 | 27.2 | 11.8 | 26 | 8.88 | 31.4 | 13 | 27.3 | 5.12 | 4.09 | 15.2 | 12.2 | 59 | 25.1
12 | COc1cc2c(cn1)[nH]c1ccccc12 | > 100 | > 100 | > 100 | > 100 | > 100 | > 100 | – | – | – | – | – | – | – | – | – | – | – | – | – | –
13 | COc1ccc(-c2csc(NC(=O)c3cc(O)c(O)c(O)c3)n2)cc1 | > 33.3 | 17.6 | > 33.3 | > 33.3 | > 33.3 | > 33.3 | 5.19 | 22.6 | – | – | 19.3 | > 33.3 | 5.18 | > 33.3 | 5.59 | 1.55 | 6.36 | 10.8 | 7.5 | 6.31
14 | NNC(=O)/C(NC(=O)c1ccccc1)=C(\N)c1ccc(Cl)cc1 | > 100 | > 100 | > 100 | > 100 | > 100 | > 100 | – | – | – | – | – | – | – | – | – | – | – | – | – | –
15 | CC(C)CN(CC(C)C)C(=O)C1CCCC[C@@H]1C(=O)O (stereo partly specified) | > 100 | > 100 | > 100 | > 100 | > 100 | > 100 | – | – | – | – | – | – | – | – | – | – | – | – | – | –
16 | C=CCn1cc(C(=O)NC(=O)NCCCCCOC(=O)CCCCCCCCCCC(=O)OCCCCCNC(=O)NC(=O)c2cn(CC=C)c(=O)n(C)c2=O)c(=O)n(C)c1=O | > 100 | > 100 | > 100 | > 100 | > 100 | > 100 | – | – | – | – | – | – | – | – | – | – | – | – | – | –
17 | Cc1cccc(C)c1NC(=O)CCc1n[nH]c(=S)o1 | 56.7 | > 100 | > 100 | 85.1 | > 100 | > 100 | – | – | – | – | – | – | – | – | – | – | – | – | – | –
18 | S=c1nc(N2CCCCC2)ss1 | 18 | 46.4 | > 100 | – | 80.5 | 49.5 | – | – | – | – | – | – | – | – | – | – | – | – | – | –
19 | CC(=O)/C=C/c1ccc(C)cc1 | > 100 | > 100 | > 100 | > 100 | > 100 | > 100 | – | – | – | – | – | – | – | – | – | – | – | – | – | –
20 | COc1ccc(-c2c(N)[n+]([O-])c3ccccc3[n+]2[O-])cc1OC | > 100 | – | – | > 100 | > 100 | > 100 | – | – | – | – | – | – | – | – | – | – | – | – | – | –
